Here are results for one compound from patent US12239413B2, “2D material detector for activity monitoring of single living micro-organisms and nano-organisms” (SOUNDCELL HOLDING B.V., priority 2019, dated 2025).

Test [1] concerns E. coli bacteria. As to the kind of experiment: Motion of suspended single layer CVD graphene with E. coli droplet, antibiotic susceptibility. The test is classed as cell-based. The conditions noted are these: single layer chemical vapour deposited graphene, Lysogeny broth droplet. How it is done: In the embodiment of FIG. 2 a red helium-neon laser 114 is directed through optical components 115 on the 2D material layer 102 which is placed in a controlled humidity chamber 116. The intensity of the reflected light from the chip 109 is altered by the motion of the micro-organism 105 in the liquid droplet 111 that in turn moves the suspended 2D material 102. This intensity is then measured by a photodiode 117 connected to an oscilloscope 118. In one example a liquid droplet 111 containing micro-organism E. coli bacteria 105 and nutrition Lysogeny broth solution 112 has been dispensed on the sample receiver 101 comprising an array of single layer chemical vapour deposited graphene as the inert suspended layer 102. The motion is read out using the measurement system described in FIG. 2. The motion of the suspended layer is traced in a timeframe of a few seconds in the presence and absence of chemicals 113 and micro-organisms 105.

Test [2] relates to E. coli bacteria. The experiment in a line: Motion of suspended silanized exfoliated 10 nm few layer graphene with adhered E. coli, antibiotic susceptibility. Type of test: cell-based. The procedure: In the embodiment of FIG. 2 a red helium-neon laser 114 is directed through optical components 115 on the 2D material layer 102 which is placed in a controlled humidity chamber 116. The intensity of the reflected light from the chip 109 is altered by the motion of the micro-organism 105 in the liquid droplet 111 that in turn moves the suspended 2D material 102. This intensity is then measured by a photodiode 117 connected to an oscilloscope 118. In another example a liquid droplet 111 containing micro-organism E. coli bacteria 105 and nutrition Lysogeny broth solution 112 has been dispensed on the sample receiver 101 comprising an array of silanized natural crystal exfoliated 10 nm few layer thick graphene as the suspended material 102. FIGS. 4a, 4b and 4c show the time traces of the suspended layer in a timeframe of twelve minutes.

On to `O=C(N[C@H](CO)[C@H](O)c1ccc([N+](=O)[O-])cc1)C(Cl)Cl` [Chloramphenicol], for which the “change of variance of the time traces after adding antibiotic” value is “drops about three times” in test [1] (FIG. 3d) and “drops about hundred times” in test [2] (timeframe of twelve minutes, FIG. 4d). In addition, the “fluctuations of the motion time trace (bacterial metabolic activity) after addition of antibiotic” value is reported as “No fluctuations are observed” in test [1] (timeframe of a few seconds, FIG. 3c) and “No fluctuations are observed” in test [2] (adhered bacteria, timeframe of twelve minutes, FIGS. 4b, 4c). In addition, the “change in average amplitude of the amplitude spectrum of the time traces after adding antibiotic” value in test [2] (FIGS. 5a-b (FIG. 4a vs FIG. 4c)) is “tenfold decrease”.
